Measurements published in ChEMBL document CHEMBL1201861, “Genomics of Drug Sensitity in Cancer screening data, Wellcome Trust Sanger Institute”.

Experiments:
SIMA = experiment: cells; assay type: functional, cell-based, Homo sapiens; settings: Homo sapiens, SIMA;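 note: growth inhibition of SIMA cells, measured with a cell viability readout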
Description: SANGER: Inhibition of human SIMA cell growth in a cell viability assay.

MEL-JUSO = experiment: cells; assay type: functional, cell-based, Homo sapiens; settings: Homo sapiens, MEL-JUSO;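 note: growth inhibition of human MEL-JUSO cells, read out with a cell viability assay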
Description: SANGER: Inhibition of human MEL-JUSO cell growth in a cell viability assay.

DG-75 = experiment: cells; assay type: functional, cell-based; settings: Homo sapiens;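 note: growth inhibition of DG-75 cells, read out with a cell viability assay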
Description: SANGER: Inhibition of human DG-75 cell growth in a cell viability assay.

LU-165 = experiment: cells; assay type: functional, cell-based; settings: Homo sapiens
Description: SANGER: Inhibition of human LU-165 cell growth in a cell viability assay.

THP-1 = experiment: cells; assay type: functional, cell-based; settings: Homo sapiens;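 note: growth inhibition of THP-1 cells, read out via a cell viability assay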
Description: SANGER: Inhibition of human THP-1 cell growth in a cell viability assay.

NCI-H1417 = experiment: cells; assay type: functional, cell-based; settings: Homo sapiens;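 note: human NCI-H1417 cells, growth inhibition determined with a cell viability readout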
Description: SANGER: Inhibition of human NCI-H1417 cell growth in a cell viability assay.

EB-3 = experiment: cells; assay type: functional, cell-based; settings: Homo sapiens;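 note: human EB-3 cells, growth inhibition read out via a cell viability assay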
Description: SANGER: Inhibition of human EB-3 cell growth in a cell viability assay.

HT55 = experiment: cells; assay type: functional, cell-based, Homo sapiens; settings: Homo sapiens, HT55;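 note: cell viability readout measuring growth inhibition of human HT55 cells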
Description: SANGER: Inhibition of human HT55 cell growth in a cell viability assay.

NCI-H460 = experiment: cells; assay type: functional, cell-based, Homo sapiens; settings: Homo sapiens, NCI-H460;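 note: cell viability assay scoring growth inhibition of human NCI-H460 cells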
Description: SANGER: Inhibition of human NCI-H460 cell growth in a cell viability assay.

NCI-H748 = experiment: cells; assay type: functional, cell-based; settings: Homo sapiens;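 note: growth inhibition of NCI-H748 cells, measured by a cell viability assay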
Description: SANGER: Inhibition of human NCI-H748 cell growth in a cell viability assay.

SJRH30 = experiment: cells; assay type: functional, cell-based; settings: Homo sapiens;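 note: growth inhibition of human SJRH30 cells, read out with a cell viability assay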
Description: SANGER: Inhibition of human SJRH30 cell growth in a cell viability assay.

SK-MM-2 = experiment: cells; assay type: functional, cell-based; settings: Homo sapiens;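 note: growth inhibition of human SK-MM-2 cells, read out with a cell viability assay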
Description: SANGER: Inhibition of human SK-MM-2 cell growth in a cell viability assay.

IM-9 = experiment: SANGER: Inhibition of human IM-9 cell growth in a cell viability assay.; assay type: functional, cell-based
G-361 = experiment: cells; assay type: functional, cell-based, Homo sapiens; settings: Homo sapiens, G-361
NCI-H1436 = experiment: cells; assay type: functional, cell-based; settings: Homo sapiens;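 note: growth suppression of human NCI-H1436 cells, determined with a cell viability readout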
Description: SANGER: Inhibition of human NCI-H1436 cell growth in a cell viability assay.

BL-41 = experiment: cells; assay type: functional, cell-based; settings: Homo sapiens;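 note: growth inhibition of human BL-41 cells, read out with a cell viability assay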
Description: SANGER: Inhibition of human BL-41 cell growth in a cell viability assay.

LB647-SCLC = experiment: cells; assay type: functional, cell-based; settings: Homo sapiens;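 note: cell growth inhibition, read out by a viability assay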
Description: SANGER: Inhibition of human LB647-SCLC cell growth in a cell viability assay.

RPMI 8402 = experiment: SANGER: Inhibition of human RPMI-8402 cell growth in a cell viability assay.; assay type: functional, cell-based
Kasumi 1 = experiment: cells; assay type: functional, cell-based; settings: Homo sapiens;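 note: growth inhibition of human Kasumi-1 cells, read out by a cell viability assay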
Description: SANGER: Inhibition of human KASUMI-1 cell growth in a cell viability assay.

NCI-H345 = experiment: cells; assay type: functional, cell-based; settings: Homo sapiens;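 note: growth inhibition of NCI-H345 cells measured with a cell viability assay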
Description: SANGER: Inhibition of human NCI-H345 cell growth in a cell viability assay.

MHH-CALL-2 = experiment: cells; assay type: functional, cell-based; settings: Homo sapiens;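 note: growth inhibition of the cell line, read out in a cell viability assay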
Description: SANGER: Inhibition of human MHH-CALL-2 cell growth in a cell viability assay.

DMS-153 = experiment: cells; assay type: functional, cell-based; settings: Homo sapiens
Description: SANGER: Inhibition of human DMS-153 cell growth in a cell viability assay.

EVSA-T = experiment: cells; assay type: functional, cell-based, Homo sapiens; settings: Homo sapiens, EVSA-T;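 note: growth inhibition of EVSA-T cells, read out with a cell viability assay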
Description: SANGER: Inhibition of human EVSA-T cell growth in a cell viability assay.

NCI-H1703 = experiment: cells; assay type: functional, cell-based, Homo sapiens; settings: Homo sapiens, NCI-H1703;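 note: growth inhibition of NCI-H1703 cells, read out via a cell viability assay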
Description: SANGER: Inhibition of human NCI-H1703 cell growth in a cell viability assay.

SCLC-21H = experiment: cells; assay type: functional, cell-based; settings: Homo sapiens;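 note: growth inhibition of cultured human SCLC-21H cells, read out with a cell viability assay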
Description: SANGER: Inhibition of human SCLC-21H cell growth in a cell viability assay.

SCC-3 = experiment: cells; assay type: functional, cell-based; settings: Homo sapiens;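 note: cell viability assay measuring inhibition of SCC-3 cell growth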
Description: SANGER: Inhibition of human SCC-3 cell growth in a cell viability assay.

NCI-H64 = experiment: cells; assay type: functional, cell-based; settings: Homo sapiens;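 note: growth inhibition of NCI-H64 cells, read out with a cell viability assay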
Description: SANGER: Inhibition of human NCI-H64 cell growth in a cell viability assay.

NCI-H2009 = experiment: cells; assay type: functional, cell-based, Homo sapiens; settings: Homo sapiens, NCI-H2009;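 note: cell viability assay measuring inhibition of NCI-H2009 cell growth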
Description: SANGER: Inhibition of human NCI-H2009 cell growth in a cell viability assay.

LOUCY = experiment: cells; assay type: functional, cell-based; settings: Homo sapiens;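 note: growth inhibition of human LOUCY cells, read out with a cell viability assay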
Description: SANGER: Inhibition of human LOUCY cell growth in a cell viability assay.

ARH-77 = experiment: cells; assay type: functional, cell-based; settings: Homo sapiens;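 note: growth inhibition of ARH-77 cells, read out by a cell viability assay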
Description: SANGER: Inhibition of human ARH-77 cell growth in a cell viability assay.

NCI-H1694 = experiment: cells; assay type: functional, cell-based; settings: Homo sapiens;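 note: cell viability assay measuring inhibition of growth in human NCI-H1694 cells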
Description: SANGER: Inhibition of human NCI-H1694 cell growth in a cell viability assay.

CA46 = experiment: cells; assay type: functional, cell-based; settings: Homo sapiens;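 note: growth inhibition of human CA46 cells, read out by a cell viability assay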
Description: SANGER: Inhibition of human CA46 cell growth in a cell viability assay.

CAL-148 = experiment: cells; assay type: functional, cell-based; settings: Homo sapiens
Description: SANGER: Inhibition of human CAL-148 cell growth in a cell viability assay.

NB1 = experiment: cells; assay type: functional, cell-based; settings: Homo sapiens;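 note: reduction of NB1 cell proliferation, read out with a viability assay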
Description: SANGER: Inhibition of human NB1 cell growth in a cell viability assay.

SUP-T1 = experiment: cells; assay type: functional, cell-based; settings: Homo sapiens;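 note: growth inhibition of human SUP-T1 cells, read out as cell viability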
Description: SANGER: Inhibition of human SUP-T1 cell growth in a cell viability assay.

NCI-H2141 = experiment: cells; assay type: functional, cell-based; settings: Homo sapiens;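 note: growth inhibition of human NCI-H2141 cells, read out with a cell viability assay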
Description: SANGER: Inhibition of human NCI-H2141 cell growth in a cell viability assay.

TE-15 = experiment: cells; assay type: functional, cell-based; settings: Homo sapiens;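 note: cell viability readout of growth inhibition in TE-15 cells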
Description: SANGER: Inhibition of human TE-15 cell growth in a cell viability assay.

NCI-H1522 = experiment: cells; assay type: functional, cell-based; settings: Homo sapiens;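 note: growth inhibition of NCI-H1522 cells, read out with a cell viability assay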
Description: SANGER: Inhibition of human NCI-H1522 cell growth in a cell viability assay.

GDM-1 = experiment: cells; assay type: functional, cell-based; settings: Homo sapiens;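 note: cell viability readout used to measure growth inhibition of human GDM-1 cells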
Description: SANGER: Inhibition of human GDM-1 cell growth in a cell viability assay.

REH = experiment: cells; assay type: functional, cell-based; settings: Homo sapiens;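 note: growth inhibition of REH cells determined with a cell viability read-out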
Description: SANGER: Inhibition of human REH cell growth in a cell viability assay.

ST486 = experiment: SANGER: Inhibition of human ST486 cell growth in a cell viability assay.; assay type: functional, cell-based
NCI-H889 = experiment: cells; assay type: functional, cell-based; settings: Homo sapiens;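 note: cell growth inhibition of the cell line, read out with a viability assay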
Description: SANGER: Inhibition of human NCI-H889 cell growth in a cell viability assay.

NCI-H2081 = experiment: cells; assay type: functional, cell-based; settings: Homo sapiens;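 note: growth inhibition of human NCI-H2081 cells, read out with a cell viability assay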
Description: SANGER: Inhibition of human NCI-H2081 cell growth in a cell viability assay.

CHP-126 = experiment: cells; assay type: functional, cell-based; settings: Homo sapiens
Description: SANGER: Inhibition of human CHP-126 cell growth in a cell viability assay.

K052 = experiment: cells; assay type: functional, cell-based; settings: Homo sapiens;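 note: Read-out from a cell viability assay, IC50 reflecting suppression of K052 cell growth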
Description: SANGER: Inhibition of human K052 cell growth in a cell viability assay.

KMS-12-PE = experiment: cells; assay type: functional, cell-based; settings: Homo sapiens;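 note: growth inhibition of human KMS-12-PE cells, measured with a cell viability assay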
Description: SANGER: Inhibition of human KMS-12-PE cell growth in a cell viability assay.

MONO-MAC-6 = experiment: cells; assay type: functional, cell-based; settings: Homo sapiens;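 note: cell viability assay measuring growth inhibition of human MONO-MAC-6 cells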
Description: SANGER: Inhibition of human MONO-MAC-6 cell growth in a cell viability assay.

NCI-H2171 = experiment: cells; assay type: functional, cell-based; settings: Homo sapiens;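 note: growth inhibition of human NCI-H2171 cells, read out by a cell viability assay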
Description: SANGER: Inhibition of human NCI-H2171 cell growth in a cell viability assay.

TE-441-T = experiment: cells; assay type: functional, cell-based; settings: Homo sapiens
Description: SANGER: Inhibition of human TE-441-T cell growth in a cell viability assay.

BC-3 = experiment: cells; assay type: functional, cell-based; settings: Homo sapiens;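 note: cell viability assay measuring growth inhibition of human BC-3 cells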
Description: SANGER: Inhibition of human BC-3 cell growth in a cell viability assay.

COC(=O)CNC(=O)C(=O)OC
IC50 (SIMA): 846 µM | IC50 (MEL-JUSO): 275 µM | IC50 (DG-75): 1050 µM | IC50 (LU-165): 804 µM | IC50 (THP-1): > 4000 µM | IC50 (NCI-H1417): 2380 µM | IC50 (EB-3): 49.6 µM | IC50 (HT55): 554 µM | IC50 (NCI-H460): 159 µM | IC50 (NCI-H748): 254 µM | IC50 (SJRH30): 1550 µM | IC50 (SK-MM-2): 101 µM | IC50 (IM-9): > 4000 µM | IC50 (G-361): 1180 µM | IC50 (NCI-H1436): > 4000 µM | IC50 (BL-41): 54.9 µM | IC50 (LB647-SCLC): 3530 µM | IC50 (RPMI 8402): 313 µM | IC50 (Kasumi 1): 122 µM | IC50 (NCI-H345): 648 µM | IC50 (MHH-CALL-2): 173 µM | IC50 (DMS-153): > 4000 µM | IC50 (EVSA-T): > 4000 µM | IC50 (NCI-H1703): 1660 µM | IC50 (SCLC-21H): > 4000 µM | IC50 (SCC-3): 1740 µM | IC50 (NCI-H64): 273 µM | IC50 (NCI-H2009): 296 µM | IC50 (LOUCY): 10.3 µM | IC50 (ARH-77): 260 µM | IC50 (NCI-H1694): 291 µM | IC50 (CA46): 96 µM | IC50 (CAL-148): > 4000 µM | IC50 (NB1): 210 µM | IC50 (SUP-T1): 143 µM | IC50 (NCI-H2141): 351 µM | IC50 (TE-15): 218 µM | IC50 (NCI-H1522): > 4000 µM | IC50 (GDM-1): 121 µM | IC50 (REH): 308 µM | IC50 (ST486): 71 µM | IC50 (NCI-H889): > 4000 µM | IC50 (NCI-H2081): 1010 µM | IC50 (CHP-126): 3500 µM | IC50 (K052): 171 µM | IC50 (KMS-12-PE): 628 µM | IC50 (MONO-MAC-6): 202 µM | IC50 (NCI-H2171): > 4000 µM | IC50 (TE-441-T): 1870 µM | IC50 (BC-3): 305 µM

COc1cc([C@@H]2c3cc4c(cc3[C@@H](O[C@@H]3O[C@@H]5CO[C@@H](C)O[C@H]5[C@H](O)[C@H]3O)[C@H]3COC(=O)[C@H]23)OCO4)cc(OC)c1O [ETOPOSIDE]
IC50 (SIMA): 8.85 µM | IC50 (MEL-JUSO): 0.657 µM | IC50 (DG-75): > 16 µM | IC50 (LU-165): > 16 µM | IC50 (THP-1): > 16 µM | IC50 (NCI-H1417): 4.61 µM | IC50 (EB-3): > 16 µM | IC50 (HT55): > 16 µM | IC50 (NCI-H460): 0.236 µM | IC50 (NCI-H748): 0.871 µM | IC50 (SJRH30): 4.72 µM | IC50 (SK-MM-2): 9.68 µM | IC50 (IM-9): > 16 µM | IC50 (G-361): 0.834 µM | IC50 (NCI-H1436): > 16 µM | IC50 (BL-41): 2.08 µM | IC50 (LB647-SCLC): 2 µM | IC50 (RPMI 8402): 0.271 µM | IC50 (Kasumi 1): 1.32 µM | IC50 (NCI-H345): > 16 µM | IC50 (MHH-CALL-2): > 16 µM | IC50 (DMS-153): > 16 µM | IC50 (EVSA-T): > 16 µM | IC50 (NCI-H1703): 1.3 µM | IC50 (SCLC-21H): > 16 µM | IC50 (SCC-3): 1.21 µM | IC50 (NCI-H64): 4 µM | IC50 (NCI-H2009): 0.697 µM | IC50 (LOUCY): 0.177 µM | IC50 (ARH-77): 2.19 µM | IC50 (NCI-H1694): 1.37 µM | IC50 (CA46): > 16 µM | IC50 (CAL-148): 0.625 µM | IC50 (NB1): 10.2 µM | IC50 (SUP-T1): 0.706 µM | IC50 (NCI-H2141): 8.52 µM | IC50 (TE-15): 0.96 µM | IC50 (NCI-H1522): > 16 µM | IC50 (GDM-1): 3.4 µM | IC50 (REH): 0.224 µM | IC50 (ST486): 2.25 µM | IC50 (NCI-H889): > 16 µM | IC50 (NCI-H2081): 4.92 µM | IC50 (CHP-126): 6.27 µM | IC50 (K052): > 16 µM | IC50 (KMS-12-PE): 9.91 µM | IC50 (MONO-MAC-6): 12.1 µM | IC50 (NCI-H2171): > 16 µM | IC50 (TE-441-T): > 16 µM | IC50 (BC-3): 2.48 µM
